Data from patent US12391676B2 (H. LEE MOFFITT CANCER CENTER AND RESEARCH INSTITUTE, INC., priority 2018, dated 2025).
pIC50: −log10 of the molar value.

How the values were obtained:
BRD4 = BRD4 (Homo sapiens (Human), UniProt O60885); assay: BRD4 DSF thermal shift (ΔTm); type: binding; details: for BRD4 DSF (ΔTm): Table 2; for DSF ΔTm: Table 1
UKE1 cells = assay: Growth inhibition GI50, UKE1 cells; type: cell-based; details: UKE1, Table 2; read-out: GI50 (UKE1)
MM1.S cells = assay: Antiproliferative activity, MM1.S cells; type: cell-based; details: Homo sapiens; for GI50: Table 2, read-out: GI50 (MM1S); for pIC50: Table 1 comments
Description: Cellular activity of promising compounds is assessed using MM.1S and MV4-11 AML cells using c-Myc levels as biomarker (6-12 hr treatment) and antiproliferative activity (48-72 hr treatment) as described (Ciceri et al., Dual kinase-bromodomain inhibitors for rationally designed polypharmacology. Nat Chem Biol 2014).

SMILES	BRD4 DSF (ΔTm) (BRD4)	GI50 (UKE1 cells)	GI50 (MM1.S cells)	further results
Cc1cnc(Nc2cc(F)c(C3CCN(C)CC3)c(F)c2)nc1Nc1ccc2ccn(S(=O)(=O)C(C)(C)C)c2n1 [MA11-012, N4-(1-(tert-butylsulfonyl)-1H-pyrrolo[2,3-b]pyridin-6-yl)-N2-(3,5-difluoro-4-(1-methylpiperidin-4-yl)phenyl)-5-methylpyrimidine-2,4-diamine]	3.9 °C	580 nM	–	–
Cc1cnc(Nc2cc(F)c(C3CCN(C)CC3)cn2)nc1Nc1cc(F)cc(NS(=O)(=O)C(C)(C)C)c1 [PN3-054, N-(3-Fluoro-5-((2-((4-fluoro-5-(1-methylpiperidin-4-yl)pyridin-2-yl)amino)-5-methylpyrimidin-4-yl)amino)phenyl)-2-methylpropane-2-sulfonamide]	–	449 nM	–	–
Cc1ccc(Nc2nc(Nc3cc(F)c(C4CCN(C)CC4)cn3)ncc2C)cc1NS(=O)(=O)C(C)(C)C [PN2-175, N-(5-((2-((4-Fluoro-5-(1-methylpiperidin-4-yl)pyridin-2-yl)amino)-5-methylpyrimidin-4-yl)amino)-2-methylphenyl)-2-methylpropane-2-sulfonamide]	12.6 °C	220 nM	–	–
Cc1ccc(Nc2nc(Nc3ccc(C4CCN(C)CC4)c(F)c3)ncc2C)cc1NS(=O)(=O)C(C)(C)C [PN2-173, N-(5-((2-((3-Fluoro-4-(1-methylpiperidin-4-yl)phenyl)amino)-5-methylpyrimidin-4-yl)amino)-2-methylphenyl)-2-methylpropane-2-sulfonamide]	12.3 °C	463 nM	–	–
Cc1cnc(Nc2ccc(C3CCN(C)CC3)c(F)c2)nc1Nc1cc(Cl)cc(NS(=O)(=O)C(C)(C)C)c1 [PN3-076, N-(3-Chloro-5-((2-((3-fluoro-4-(1-methylpiperidin-4-yl)phenyl)amino)-5-methylpyrimidin-4-yl)amino)phenyl)-2-methylpropane-2-sulfonamide]	–	1100 nM	–	–
Cc1cnc(Nc2cc(F)c(C3CCN(C)CC3)cn2)nc1Nc1cccc(NS(=O)(=O)C(C)(C)C)n1 [MA11-038, N-(6-((2-((4-fluoro-5-(1-methylpiperidin-4-yl)pyridin-2-yl)amino)-5-methylpyrimidin-4-yl)amino)pyridin-2-yl)-2-methylpropane-2-sulfonamide]	–	5600 nM	–	–
Cc1cnc(Nc2ccc(C3CCN(C)CC3)c(F)c2)nc1Nc1cccc(NS(=O)(=O)C(C)(C)C)n1 [MA11-032, N-(6-((2-((3-fluoro-4-(1-methylpiperidin-4-yl)phenyl)amino)-5-methylpyrimidin-4-yl)amino)pyridin-2-yl)-2-methylpropane-2-sulfonamide]	–	385 nM	–	–
Cc1ccc(Nc2nc(Nc3cc(F)c(C4CCN(C)CC4)c(F)c3)ncc2C)cc1NS(=O)(=O)C(C)(C)C [PN2-174, N-(5-((2-((3,5-Difluoro-4-(1-methylpiperidin-4-yl)phenyl)amino)-5-methylpyrimidin-4-yl)amino)-2-methylphenyl)-2-methylpropane-2-sulfonamide]	13.3 °C	194 nM	–	–
Cc1cnc(Nc2cc(F)c(C3CCN(C)CC3)c(F)c2)nc1Nc1cccc(NS(=O)(=O)C(C)(C)C)n1 [MA11-035, N-(6-((2-((3,5-difluoro-4-(1-methylpiperidin-4-yl)phenyl)amino)-5-methylpyrimidin-4-yl)amino)pyridin-2-yl)-2-methylpropane-2-sulfonamide]	5.1 °C	761 nM	–	–
Cc1cnc(Nc2cc(F)c(C3CCN(C)CC3)cn2)nc1Nc1cc(Cl)cc(NS(=O)(=O)C(C)(C)C)c1 [PN3-074, N-(3-Chloro-5-((2-((4-fluoro-5-(1-methylpiperidin-4-yl)pyridin-2-yl)amino)-5-methylpyrimidin-4-yl)amino)phenyl)-2-methylpropane-2-sulfonamide]	–	937 nM	–	–
Cc1cnc(Nc2cc(F)c(C3CCN(C)CC3)c(F)c2)nc1Nc1cc(Cl)cc(NS(=O)(=O)C(C)(C)C)c1 [PN3-075, N-(3-Chloro-5-((2-((3,5-difluoro-4-(1-methylpiperidin-4-yl)phenyl)amino)-5-methylpyrimidin-4-yl)amino)phenyl)-2-methylpropane-2-sulfonamide]	–	556 nM	–	–
CN1CCC(c2ccc(Nc3ncc(I)c(Nc4ccc(Cl)c(NS(=O)(=O)C(C)(C)C)c4)n3)cc2F)CC1 [PN1-118, N-(2-Chloro-5-((2-((3-fluoro-4-(1-methylpiperidin-4-yl)phenyl)amino)-5-iodopyrimidin-4-yl)amino)phenyl)-2-methylpropane-2-sulfonamide]	11.6 °C	–	210 nM	–
CN1CCC(c2ccc(Nc3ncc([N+](=O)[O-])c(Nc4ccc(Cl)c(NS(=O)(=O)C(C)(C)C)c4)n3)cc2F)CC1 [PN1-132, N-(2-Chloro-5-((2-((3-fluoro-4-(1-methylpiperidin-4-yl)phenyl)amino)-5-nitropyrimidin-4-yl)amino)phenyl)-2-methylpropane-2-sulfonamide]	12.8 °C	–	360 nM	–
Cc1cnc(Nc2cc(F)c(C3CCN(C)CC3)c(F)c2)nc1Nc1ccc(Cl)c(NS(=O)(=O)C(C)(C)C)c1 [PN2-122, N-(2-Chloro-5-((2-((3,5-difluoro-4-(1-methylpiperidin-4-yl)phenyl)amino)-5-methylpyrimidin-4-yl)amino)phenyl)-2-methylpropane-2-sulfonamide]	15.2 °C	–	93 nM	–
Cc1cnc(Nc2ccc(C3CCN(C)CC3)c(F)c2)cc1Nc1ccc2c(c1)N(S(=O)(=O)C(C)(C)C)CC2 [MA9-064, N4-(1-(Tert-butylsulfonyl)indolin-6-yl)-N2-(3-fluoro-4-(1-methylpiperidin-4-yl)phenyl)-5-methylpyridine-2,4-diamine]	8.2 °C	–	1600 nM	–
CN1CCC(c2ccc(Nc3ncc(N)c(Nc4ccc(Cl)c(NS(=O)(=O)C(C)(C)C)c4)n3)cc2F)CC1 [PN1-140, N-(5-((5-Amino-2-((3-fluoro-4-(1-methylpiperidin-4-yl)phenyl)amino)pyrimidin-4-yl)amino)-2-chlorophenyl)-2-methylpropane-2-sulfonamide]	9.5 °C	–	1800 nM	–
Cc1cnc(Nc2ccc(C3CCN(C)CC3)c(F)n2)nc1Nc1ccc(F)c(NS(=O)(=O)C(C)(C)C)c1 [PN2-116, N-(2-Fluoro-5-((2-((6-fluoro-5-(1-methylpiperidin-4-yl)pyridin-2-yl)amino)-5-methylpyrimidin-4-yl)amino)phenyl)-2-methylpropane-2-sulfonamide]	12.1 °C	–	104 nM	–
Cc1cnc(Nc2cc(F)cc(N3CCN(C)CC3)c2)nc1Nc1cccc(NS(=O)(=O)C(C)(C)C)c1 [drawing 14]	–	–	–	DSF ΔTm (BRD4): 11.1 °C; pIC50 (MM1.S cells): 6.66
Cc1cnc(Nc2ccc(C3CCN(C)CC3)c(F)c2)nc1Nc1cc(F)cc(NS(=O)(=O)C(C)(C)C)c1 [PN3-052, N-(3-Fluoro-5-((2-((3-fluoro-4-(1-methylpiperidin-4-yl)phenyl)amino)-5-methylpyrimidin-4-yl)amino)phenyl)-2-methylpropane-2-sulfonamide]	–	270 nM	–	–
Cc1cnc(Nc2ccc(C3CCN(C)CC3)c(F)c2)nc1Nc1ccc(F)c(NS(=O)(=O)C(C)(C)C)c1 [PN2-118, N-(2-Fluoro-5-((2-((3-fluoro-4-(1-methylpiperidin-4-yl)phenyl)amino)-5-methylpyrimidin-4-yl)amino)phenyl)-2-methylpropane-2-sulfonamide]	13.0 °C	–	83 nM	–
Cc1cnc(Nc2ccc(C3CCN(C)CC3)c(F)c2)cc1Nc1cccc(NS(=O)(=O)C(C)(C)C)c1 [SY3-039, N-(3-((2-((3-Fluoro-4-(1-methylpiperidin-4-yl)phenyl)amino)-5-methylpyridin-4-yl)amino)phenyl)-2-methylpropane-2-sulfonamide]	6.7 °C	–	1600 nM	–
Cc1cnc(Nc2cc(F)c(C3CCN(C)CC3)cc2F)nc1Nc1ccc(Cl)c(NS(=O)(=O)C(C)(C)C)c1 [PN1-102, N-(2-Chloro-5-((2-((2,5-difluoro-4-(1-methylpiperidin-4-yl)phenyl)amino)-5-methylpyrimidin-4-yl)amino)phenyl)-2-methylpropane-2-sulfonamide]	11.4 °C	–	320 nM	–
Cc1cnc(Nc2ccc(C3CCN(C)CC3)c(F)n2)nc1Nc1cccc(NS(=O)(=O)C(C)(C)C)c1 [PN2-117, N-(3-((2-((6-Fluoro-5-(1-methylpiperidin-4-yl)pyridin-2-yl)amino)-5-methylpyrimidin-4-yl)amino)phenyl)-2-methylpropane-2-sulfonamide]	11.0 °C	–	153 nM	–
CN1CCC(c2ccc(Nc3ncc(-c4cnn(C)c4)c(Nc4ccc(Cl)c(NS(=O)(=O)C(C)(C)C)c4)n3)cc2F)CC1 [PN1-145, N-(2-Chloro-5-((2-((3-fluoro-4-(1-methylpiperidin-4-yl)phenyl)amino)-5-(1-methyl-1H-pyrazol-4-yl)pyrimidin-4-yl)amino)phenyl)-2-methylpropane-2-sulfonamide]	7.1 °C	–	220 nM	–
Cc1cnc(Nc2cc(F)c(C3CCN(C)CC3)c(F)c2)nc1Nc1cc(F)cc(NS(=O)(=O)C(C)(C)C)c1 [PN3-053, N-(3-((2-((3,5-Difluoro-4-(1-methylpiperidin-4-yl)phenyl)amino)-5-methylpyrimidin-4-yl)amino)-5-fluorophenyl)-2-methylpropane-2-sulfonamide]	–	185 nM	–	–
CN1CCC(c2ccc(Nc3ncc(C#N)c(Nc4ccc(Cl)c(NS(=O)(=O)C(C)(C)C)c4)n3)cc2F)CC1 [PN1-138, N-(2-Chloro-5-((5-cyano-2-((3-fluoro-4-(1-methylpiperidin-4-yl)phenyl)amino)pyrimidin-4-yl)amino)phenyl)-2-methylpropane-2-sulfonamide]	7.6 °C	–	890 nM	–
Cc1cnc(Nc2cc(F)cc(N3CCN(C)CC3)c2)nc1Nc1ccc(Cl)c(NS(=O)(=O)C(C)(C)C)c1 [drawing 10]	–	–	–	DSF ΔTm (BRD4): 11.1 °C; pIC50 (MM1.S cells): 6.80
